The subject of assay [1] is HEK293. In words: cells. The format is functional, cell-based. The note with it: Homo sapiens.
Assay [2] addresses Mucolipin-3 (Homo sapiens, UniProt Q8TDD5). Kind of assay: Fluorescence counterscreen assay for […] agonists: dose response cell-based high-throughput screening assay to identify agonists of the transient receptor potential channel ML3 (TRPML3). [Related pubchem assays: 1424, 1448 ]. The format is functional. (A counterscreen serves to expose hits that act by an unwanted route or on another target.)

Assay [3] deals with Ion channel NompC (Danio rerio, UniProt Q7T1G6). In words: Dose response cell-based high-throughput screening assay for agonists of the transient receptor potential channel N1 (TRPN1). [Related pubchem assays (depositor defined):AID1424, AID1448]. Format: functional.
Assay [4] deals with HEK293. In words: NOD1 signaling inhibitors, primary screen, cell-based, luminescence, uHTS (AID 1578). The format is functional. Conditions: Homo sapiens.
Assay [5] deals with HEK293. Kind of assay: NOD2 signaling inhibitors in MDP-stimulated cells, cell-based, uHTS, luminescence (AID 2001). The format is functional. The note with it: Homo sapiens.
A short description of assay [6]: Vero E6 cell cytotoxicity, dose response, cytotoxicity control for non-replicating M. tuberculosis project, secondary assay (AID 492998). The format is functional, VeroE6. The note with it: Vero C1008.
A short description of assay [7]: cells. Format: functional.
In assay [8] the target is T1, Protein skinhead-1 (Caenorhabditis elegans, UniProt P34707).
T1 sequence (P34707 whole entry): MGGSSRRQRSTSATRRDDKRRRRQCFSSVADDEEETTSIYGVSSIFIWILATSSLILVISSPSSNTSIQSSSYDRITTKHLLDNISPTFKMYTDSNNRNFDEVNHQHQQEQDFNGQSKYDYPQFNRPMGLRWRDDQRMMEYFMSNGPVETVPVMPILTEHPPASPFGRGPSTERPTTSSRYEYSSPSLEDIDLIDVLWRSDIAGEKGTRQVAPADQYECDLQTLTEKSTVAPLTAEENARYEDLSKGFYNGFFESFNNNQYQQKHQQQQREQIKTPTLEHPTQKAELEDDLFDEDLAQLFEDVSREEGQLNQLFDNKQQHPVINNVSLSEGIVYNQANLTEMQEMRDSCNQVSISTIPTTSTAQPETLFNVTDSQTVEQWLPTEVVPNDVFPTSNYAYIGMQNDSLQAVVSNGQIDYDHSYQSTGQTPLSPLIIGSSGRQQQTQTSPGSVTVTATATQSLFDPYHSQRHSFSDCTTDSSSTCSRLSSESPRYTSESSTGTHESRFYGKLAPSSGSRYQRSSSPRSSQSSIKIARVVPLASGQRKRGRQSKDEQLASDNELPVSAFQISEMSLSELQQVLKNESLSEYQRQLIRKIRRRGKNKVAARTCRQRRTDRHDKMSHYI
The format is functional.

Assay [9] is described as follows: THP-1 cell cytotoxicity, dose response, cytotoxicity control for non-replicating M. tuberculosis project (AID 489025). Format: functional.
Assay [10] has as its target Glyceraldehyde-3-phosphate dehydrogenase (Homo sapiens, UniProt P04406).
Assay [11] addresses T2, Alkaline phosphatase, tissue-nonspecific isozyme (Homo sapiens, UniProt P05186).
T2 sequence (P05186 whole entry): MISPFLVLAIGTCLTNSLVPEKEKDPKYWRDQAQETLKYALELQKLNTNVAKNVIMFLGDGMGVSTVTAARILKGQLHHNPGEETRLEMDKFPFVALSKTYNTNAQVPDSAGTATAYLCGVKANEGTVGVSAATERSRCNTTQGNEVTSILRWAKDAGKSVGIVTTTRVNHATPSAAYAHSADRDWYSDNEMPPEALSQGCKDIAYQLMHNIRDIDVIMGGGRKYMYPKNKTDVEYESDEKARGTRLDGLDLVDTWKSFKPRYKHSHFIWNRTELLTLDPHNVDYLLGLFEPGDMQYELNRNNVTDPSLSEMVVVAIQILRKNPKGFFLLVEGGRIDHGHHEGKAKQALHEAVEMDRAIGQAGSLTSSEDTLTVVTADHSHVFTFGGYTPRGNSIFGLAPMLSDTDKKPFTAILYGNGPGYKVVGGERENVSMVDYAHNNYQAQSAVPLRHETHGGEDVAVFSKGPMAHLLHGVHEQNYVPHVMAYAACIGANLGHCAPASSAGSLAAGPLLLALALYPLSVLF
In words: human TNAP enzyme inhibitors, SAR follow-up, biochemical, luminescent, dose response (AID 1056).

For assay [12], the target named is T3, Voltage-gated N-type calcium channel alpha-1B subunit/Amyloid beta A4 precursor protein-binding family A member 1 (Homo sapiens, UniProt Q00975+Q02410). The format is protein assay.
T3 sequence (Q00975 whole entry): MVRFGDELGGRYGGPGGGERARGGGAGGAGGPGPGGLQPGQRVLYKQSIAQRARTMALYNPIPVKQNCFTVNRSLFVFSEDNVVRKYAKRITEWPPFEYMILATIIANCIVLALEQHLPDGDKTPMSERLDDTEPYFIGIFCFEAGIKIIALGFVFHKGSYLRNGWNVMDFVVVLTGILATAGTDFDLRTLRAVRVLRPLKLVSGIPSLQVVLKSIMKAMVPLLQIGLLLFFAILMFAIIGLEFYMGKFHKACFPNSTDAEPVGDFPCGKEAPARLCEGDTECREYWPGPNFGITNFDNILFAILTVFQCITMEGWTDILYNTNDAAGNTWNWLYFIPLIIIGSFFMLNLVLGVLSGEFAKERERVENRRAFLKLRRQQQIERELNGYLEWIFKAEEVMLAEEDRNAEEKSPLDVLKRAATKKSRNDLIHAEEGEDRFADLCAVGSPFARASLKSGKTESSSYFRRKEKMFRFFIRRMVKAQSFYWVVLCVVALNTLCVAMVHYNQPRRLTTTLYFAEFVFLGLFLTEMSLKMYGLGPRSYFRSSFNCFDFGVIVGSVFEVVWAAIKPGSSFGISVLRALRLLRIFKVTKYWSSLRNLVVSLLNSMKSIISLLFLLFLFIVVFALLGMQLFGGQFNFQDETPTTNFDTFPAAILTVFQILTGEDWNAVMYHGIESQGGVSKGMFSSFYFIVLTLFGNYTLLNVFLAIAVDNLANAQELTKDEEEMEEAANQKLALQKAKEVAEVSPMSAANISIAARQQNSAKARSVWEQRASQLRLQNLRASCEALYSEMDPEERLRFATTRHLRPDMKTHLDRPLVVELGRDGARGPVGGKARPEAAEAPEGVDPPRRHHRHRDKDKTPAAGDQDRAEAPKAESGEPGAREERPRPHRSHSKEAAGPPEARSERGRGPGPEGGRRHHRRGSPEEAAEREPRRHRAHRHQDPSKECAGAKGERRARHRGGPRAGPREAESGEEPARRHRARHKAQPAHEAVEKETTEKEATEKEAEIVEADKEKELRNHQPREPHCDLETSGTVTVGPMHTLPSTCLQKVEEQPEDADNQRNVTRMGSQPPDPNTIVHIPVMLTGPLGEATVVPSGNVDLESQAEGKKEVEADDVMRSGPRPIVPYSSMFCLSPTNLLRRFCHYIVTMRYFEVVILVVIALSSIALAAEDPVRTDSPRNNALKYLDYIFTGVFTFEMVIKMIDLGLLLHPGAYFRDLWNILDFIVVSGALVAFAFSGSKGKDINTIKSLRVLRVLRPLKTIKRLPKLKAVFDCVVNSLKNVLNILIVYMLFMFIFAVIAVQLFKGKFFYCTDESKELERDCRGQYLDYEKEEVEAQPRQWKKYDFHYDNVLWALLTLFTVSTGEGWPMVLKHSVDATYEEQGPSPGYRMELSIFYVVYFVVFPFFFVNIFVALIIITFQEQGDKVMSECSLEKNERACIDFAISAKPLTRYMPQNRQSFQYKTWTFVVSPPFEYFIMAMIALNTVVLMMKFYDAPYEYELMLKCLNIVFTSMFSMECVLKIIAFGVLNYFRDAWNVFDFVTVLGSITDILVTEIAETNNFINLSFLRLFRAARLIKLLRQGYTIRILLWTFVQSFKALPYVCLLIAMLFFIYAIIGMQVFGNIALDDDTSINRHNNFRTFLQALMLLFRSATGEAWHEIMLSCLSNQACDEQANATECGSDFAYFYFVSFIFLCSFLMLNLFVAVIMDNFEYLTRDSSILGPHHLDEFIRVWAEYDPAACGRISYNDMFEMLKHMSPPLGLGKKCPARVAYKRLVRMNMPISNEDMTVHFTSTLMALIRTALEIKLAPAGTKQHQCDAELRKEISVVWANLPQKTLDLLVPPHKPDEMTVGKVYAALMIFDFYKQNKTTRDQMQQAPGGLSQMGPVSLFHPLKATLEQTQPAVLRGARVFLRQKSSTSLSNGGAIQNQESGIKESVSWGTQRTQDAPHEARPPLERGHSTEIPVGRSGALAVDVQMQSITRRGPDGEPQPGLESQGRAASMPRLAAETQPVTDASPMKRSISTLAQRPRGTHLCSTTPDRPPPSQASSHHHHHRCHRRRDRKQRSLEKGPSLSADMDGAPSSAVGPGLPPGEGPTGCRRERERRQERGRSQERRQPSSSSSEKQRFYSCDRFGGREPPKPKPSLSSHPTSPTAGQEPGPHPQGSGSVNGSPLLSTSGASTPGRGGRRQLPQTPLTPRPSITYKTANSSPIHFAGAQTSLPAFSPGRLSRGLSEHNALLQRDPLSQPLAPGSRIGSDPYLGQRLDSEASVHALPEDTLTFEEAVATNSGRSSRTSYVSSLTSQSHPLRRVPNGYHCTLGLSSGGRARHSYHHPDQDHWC
T3 sequence (Q02410 whole entry): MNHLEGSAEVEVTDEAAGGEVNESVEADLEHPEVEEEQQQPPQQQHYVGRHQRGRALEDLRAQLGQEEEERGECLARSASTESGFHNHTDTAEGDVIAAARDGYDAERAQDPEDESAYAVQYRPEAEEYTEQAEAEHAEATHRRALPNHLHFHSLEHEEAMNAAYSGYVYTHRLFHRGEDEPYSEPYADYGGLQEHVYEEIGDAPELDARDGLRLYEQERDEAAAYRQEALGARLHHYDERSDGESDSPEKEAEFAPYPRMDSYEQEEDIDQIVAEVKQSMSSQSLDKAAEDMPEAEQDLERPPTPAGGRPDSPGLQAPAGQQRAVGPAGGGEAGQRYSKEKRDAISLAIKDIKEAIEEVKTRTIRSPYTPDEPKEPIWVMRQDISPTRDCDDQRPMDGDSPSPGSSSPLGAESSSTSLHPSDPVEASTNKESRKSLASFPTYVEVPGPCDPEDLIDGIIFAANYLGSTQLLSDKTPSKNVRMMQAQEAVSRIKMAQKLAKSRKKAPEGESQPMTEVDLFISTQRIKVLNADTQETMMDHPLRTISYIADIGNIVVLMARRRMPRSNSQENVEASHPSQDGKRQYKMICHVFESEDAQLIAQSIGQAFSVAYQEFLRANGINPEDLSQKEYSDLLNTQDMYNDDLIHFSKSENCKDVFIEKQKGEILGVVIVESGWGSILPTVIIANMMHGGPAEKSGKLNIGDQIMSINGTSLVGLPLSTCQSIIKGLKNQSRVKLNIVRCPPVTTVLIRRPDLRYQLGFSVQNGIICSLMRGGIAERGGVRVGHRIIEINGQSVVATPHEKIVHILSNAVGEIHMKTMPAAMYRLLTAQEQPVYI
Assay [13] deals with T4, Caspase-3 (Homo sapiens, UniProt P42574).
T4 sequence (P42574 whole entry): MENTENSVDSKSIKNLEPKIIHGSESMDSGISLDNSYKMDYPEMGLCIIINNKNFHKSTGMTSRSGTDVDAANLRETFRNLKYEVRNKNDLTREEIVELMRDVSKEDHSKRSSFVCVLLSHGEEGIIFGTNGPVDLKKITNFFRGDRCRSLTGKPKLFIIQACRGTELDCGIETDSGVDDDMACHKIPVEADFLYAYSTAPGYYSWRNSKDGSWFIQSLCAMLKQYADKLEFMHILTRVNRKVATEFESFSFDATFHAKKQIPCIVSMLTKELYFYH
The format is functional.

Assay [14] deals with T5, Sentrin-specific protease 8 (Homo sapiens, UniProt Q96LD8).
T5 sequence (Q96LD8 whole entry): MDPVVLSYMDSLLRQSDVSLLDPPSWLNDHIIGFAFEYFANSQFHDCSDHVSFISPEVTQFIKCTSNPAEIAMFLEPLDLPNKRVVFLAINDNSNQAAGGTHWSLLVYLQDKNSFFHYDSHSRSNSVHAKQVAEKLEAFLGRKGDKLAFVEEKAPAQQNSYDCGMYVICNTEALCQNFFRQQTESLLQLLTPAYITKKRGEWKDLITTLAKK
Format: functional.

Assay [15] concerns the target T6, Sentrin-specific protease 7 (Homo sapiens, UniProt Q9BQF6).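 Also: Luminescence-based dose-response confirmation of ultra-high-throughput screening hits, measuring inhibition of SENP7.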
T6 sequence (Q9BQF6 whole entry): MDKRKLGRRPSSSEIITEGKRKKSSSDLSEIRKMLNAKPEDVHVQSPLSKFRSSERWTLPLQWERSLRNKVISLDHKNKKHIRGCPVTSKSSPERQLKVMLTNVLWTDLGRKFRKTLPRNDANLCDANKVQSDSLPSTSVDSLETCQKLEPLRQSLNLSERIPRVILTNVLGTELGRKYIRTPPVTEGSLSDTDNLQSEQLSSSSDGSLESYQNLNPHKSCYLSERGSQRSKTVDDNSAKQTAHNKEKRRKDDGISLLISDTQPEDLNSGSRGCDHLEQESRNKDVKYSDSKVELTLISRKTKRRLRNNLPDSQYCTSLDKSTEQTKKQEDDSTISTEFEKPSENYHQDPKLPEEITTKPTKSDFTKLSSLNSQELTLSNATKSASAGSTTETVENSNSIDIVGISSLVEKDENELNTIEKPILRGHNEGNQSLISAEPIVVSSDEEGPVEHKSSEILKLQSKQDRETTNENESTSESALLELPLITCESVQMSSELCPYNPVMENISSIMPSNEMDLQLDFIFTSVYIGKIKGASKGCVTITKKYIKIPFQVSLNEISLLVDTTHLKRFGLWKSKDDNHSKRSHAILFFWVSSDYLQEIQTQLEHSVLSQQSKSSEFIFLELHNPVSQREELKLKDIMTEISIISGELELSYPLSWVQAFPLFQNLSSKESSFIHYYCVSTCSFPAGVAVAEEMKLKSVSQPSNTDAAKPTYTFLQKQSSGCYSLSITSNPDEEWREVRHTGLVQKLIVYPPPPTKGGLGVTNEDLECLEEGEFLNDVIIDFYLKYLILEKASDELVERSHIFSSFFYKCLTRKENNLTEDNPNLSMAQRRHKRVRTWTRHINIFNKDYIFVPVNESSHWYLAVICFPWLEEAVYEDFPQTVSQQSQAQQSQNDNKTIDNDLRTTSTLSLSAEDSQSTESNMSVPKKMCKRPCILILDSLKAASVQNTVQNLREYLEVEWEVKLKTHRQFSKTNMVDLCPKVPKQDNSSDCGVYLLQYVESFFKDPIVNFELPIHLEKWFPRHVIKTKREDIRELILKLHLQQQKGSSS
Format: functional.

For assay [16], the target named is T7, Sentrin-specific protease 6 (Homo sapiens, UniProt Q9GZR1).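 Also: Luminescence-based dose-response confirmatory assay of SENP6 inhibition, following up an ultra-high-throughput screen.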
T7 sequence (Q9GZR1 whole entry): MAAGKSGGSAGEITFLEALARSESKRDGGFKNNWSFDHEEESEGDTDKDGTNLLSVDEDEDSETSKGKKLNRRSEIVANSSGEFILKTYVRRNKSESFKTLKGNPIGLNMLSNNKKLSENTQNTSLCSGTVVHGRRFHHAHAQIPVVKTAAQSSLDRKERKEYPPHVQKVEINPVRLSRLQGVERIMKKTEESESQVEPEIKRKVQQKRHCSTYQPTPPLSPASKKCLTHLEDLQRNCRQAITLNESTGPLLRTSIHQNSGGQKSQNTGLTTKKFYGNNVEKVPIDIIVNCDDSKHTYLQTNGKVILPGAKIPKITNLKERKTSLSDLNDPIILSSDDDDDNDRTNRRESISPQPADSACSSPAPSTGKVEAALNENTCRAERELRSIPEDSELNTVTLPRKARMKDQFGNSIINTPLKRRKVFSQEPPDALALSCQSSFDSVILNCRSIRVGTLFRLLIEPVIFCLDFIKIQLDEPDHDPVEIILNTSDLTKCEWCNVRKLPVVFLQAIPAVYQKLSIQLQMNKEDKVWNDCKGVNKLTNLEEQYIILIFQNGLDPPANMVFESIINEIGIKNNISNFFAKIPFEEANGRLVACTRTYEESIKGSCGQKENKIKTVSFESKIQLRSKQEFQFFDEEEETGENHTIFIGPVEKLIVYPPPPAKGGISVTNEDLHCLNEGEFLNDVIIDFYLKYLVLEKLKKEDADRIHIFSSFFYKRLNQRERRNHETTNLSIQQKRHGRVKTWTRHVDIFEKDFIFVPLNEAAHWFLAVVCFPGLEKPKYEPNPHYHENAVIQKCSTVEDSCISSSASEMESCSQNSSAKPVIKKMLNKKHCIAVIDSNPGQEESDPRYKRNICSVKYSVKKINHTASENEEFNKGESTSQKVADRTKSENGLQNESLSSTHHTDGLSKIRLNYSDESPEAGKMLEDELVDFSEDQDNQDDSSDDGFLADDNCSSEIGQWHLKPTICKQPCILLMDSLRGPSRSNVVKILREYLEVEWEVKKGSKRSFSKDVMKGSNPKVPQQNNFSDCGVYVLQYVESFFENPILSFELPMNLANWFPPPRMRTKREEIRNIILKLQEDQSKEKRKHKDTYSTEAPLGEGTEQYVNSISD
Format: functional.

In assay [17] the target is T3, Voltage-gated N-type calcium channel alpha-1B subunit/Amyloid beta A4 precursor protein-binding family A member 1. Format: protein assay. This is another data set of the same source.

Active and inactive are the calls of the source.

Sequence of Mucolipin-3 (Q8TDD5 whole entry): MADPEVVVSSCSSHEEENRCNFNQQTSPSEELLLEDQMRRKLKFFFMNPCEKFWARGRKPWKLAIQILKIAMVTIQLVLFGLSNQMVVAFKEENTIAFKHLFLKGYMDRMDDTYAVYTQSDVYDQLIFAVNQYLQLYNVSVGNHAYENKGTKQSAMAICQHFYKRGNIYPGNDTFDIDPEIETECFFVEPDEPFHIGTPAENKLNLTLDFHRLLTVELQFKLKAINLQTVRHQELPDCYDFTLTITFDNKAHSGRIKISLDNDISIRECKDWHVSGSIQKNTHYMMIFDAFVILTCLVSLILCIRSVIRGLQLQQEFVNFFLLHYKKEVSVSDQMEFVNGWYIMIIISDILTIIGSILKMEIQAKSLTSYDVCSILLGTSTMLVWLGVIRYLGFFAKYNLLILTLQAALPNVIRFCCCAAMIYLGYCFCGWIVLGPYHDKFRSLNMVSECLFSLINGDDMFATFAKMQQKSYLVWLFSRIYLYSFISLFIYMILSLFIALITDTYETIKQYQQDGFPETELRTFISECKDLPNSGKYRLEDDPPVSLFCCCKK
Sequence of Glyceraldehyde-3-phosphate dehydrogenase (P04406 whole entry): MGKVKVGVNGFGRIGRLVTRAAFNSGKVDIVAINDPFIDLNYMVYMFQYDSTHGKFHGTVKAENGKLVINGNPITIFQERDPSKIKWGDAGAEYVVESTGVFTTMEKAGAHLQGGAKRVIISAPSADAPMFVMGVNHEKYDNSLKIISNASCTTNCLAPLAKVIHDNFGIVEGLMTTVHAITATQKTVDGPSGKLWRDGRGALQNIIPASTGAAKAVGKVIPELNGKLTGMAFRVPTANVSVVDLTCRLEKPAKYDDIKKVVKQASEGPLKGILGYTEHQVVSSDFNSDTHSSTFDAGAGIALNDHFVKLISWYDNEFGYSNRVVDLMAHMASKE

Consider `Cc1ccc(NC(=O)Nc2nnc(-c3ccncc3)s2)cc1`, for which the IC50 in assay [1] is > 20 µM (inactive); in assay [5], 5.87 µM (active). The 50% effective concentration (EC50) in assay [2] was > 29.9 µM (not active); in [3], > 29.9 µM (inactive); in assay [4], 3.38 µM (active).
In the case of `C#CCSc1nnc(-c2cccc3ccccc23)o1`, the half-maximal cytotoxic concentration (CC50) is 15.7 µM (active) in assay [6] and 20.6 µM (active) in assay [9]. Further, the IC50 is 9.32 µM (active) in [7] and 10.2 µM (active) in assay [8].
Turning to `COc1ccc(S(=O)(=O)Nc2ccncn2)cc1OC`, the IC50 in assay [10] is > 100 µM (not active); in [11], > 100 µM (inactive).
Turning to `O=c1[nH]c(/C=C/c2ccccc2Cl)nc2ccccc12`, the IC50 in assay [12] is > 50 µM (inactive); in assay [13] it was 1.61 µM (active); in [14] it was > 100 µM (inactive); in assay [15], 1.64 µM (active); in assay [16], 1.4 µM (active); in assay [17] it was > 56.8 µM (not active).
In the case of `COC(=O)C(/C=N/OCc1ccc([N+](=O)[O-])cc1)NC(=O)c1cccc(Cl)c1` (centres undefined), the EC50 in assay [2] is > 29.9 µM (not active); in assay [3], > 29.9 µM (inactive).

The term IC50 denotes the concentration that inhibits the measured activity by half. One may read the EC50 as the concentration that produces a half-maximal response. As usually defined, the CC50 is the concentration that lowers cell viability or growth by half.

(Values after ChEMBL document CHEMBL1201862, “PubChem BioAssay data set” (2004).)
